Source: article PMC11884657, “Ru(II)-Fenamic-Based Complexes as Promising Human Ovarian Antitumor Agents: DNA Interaction, Cellular Uptake, and Three-Dimensional Spheroid Models” (Inorganic Chemistry, 2025)
Like-named read-outs stand apart in the source and are kept apart here.

Legend:
[1] = system: A549 (lung) cancer cells; assay: MTT cytotoxicity assay, A549; settings: read-out: In Vitro Cytotoxicity IC50, A549
Protocol: (§1) The cell lines were grown in culture bottles and incubated at a CO2 concentration of 5% and 37 °C.
(§2) Cell viability was investigated via the MTT [3-(4,5-dimethylthiazol-2-yl)-2,5-diphenyltetrazolium bromide] assay. This method consists of the capacity of enzymes present in living cells, especially in mitochondria, to reduce MTT to formazan, a purple-colored compound. […] For the assays, 1.5 × 10^4 cells/well were seeded in 96-well flat-bottom cell culture plates (KASVI). The plates were incubated for 24 h; then, different concentrations of the complexes were pipetted, and the plates were treated for an additional 48 h. To complete the treatment, 50 μL of MTT (1 mg/mL in PBS) was added to each well, followed by incubation for 3 h. The formazan crystals that formed were solubilized in isopropanol, and the absorbance was read with a microplate reader (BioTek, Epoch) at 540 nm. Cell viability (IC50) was assessed with GraphPad Prism 8.

[2] = MTT cytotoxicity assay, MRC-5; settings: human
Protocol: as §1, §2

[3] = system: A2780 (ovarian) cancer cells; assay: MTT cytotoxicity assay, A2780; settings: read-out: In Vitro Cytotoxicity IC50, A2780
Protocol: as §1, §2

[4] = system: A2780cis (ovarian cisplatin-resistant) cancer cells; assay: MTT cytotoxicity assay, A2780cis; settings: read-out: In Vitro Cytotoxicity IC50, A2780cis
Protocol: as §1, §2

[5] = system: MDA-MB-231 (breast) cancer cells; assay: MTT cytotoxicity assay, MDA-MB-231; settings: read-out: In Vitro Cytotoxicity IC50, MDA-MB-231
Protocol: as §1, §2

[6] = in vitro; settings: human
Protocol: as §1, §2

[7] = Stability by 31P{1H} NMR; settings: 48 h
Protocol: Furthermore, the stability of the complexes was studied via ^31P{^1H} NMR in DMSO and a DMSO/DMEM (Dulbecco’s modified Eagle’s medium) solution over 48 h. […] In the same way, stability assays were performed for the precursor cis-[RuCl2(bipy)(dppp)].

[8] = system: MRC-5 (lung) normal cells; assay: MTT cytotoxicity assay, MRC-5; settings: read-out: In Vitro Cytotoxicity IC50, MRC-5; MTT, 48 h treatment
Protocol: as §1, §2

[9] = system: A2780 cells; assay: Cellular uptake of ruthenium by HR-CS GFAAS; assay type: cell-based, human; settings: 1 μM complex, 4 h
Protocol: Due to the higher cytotoxicity of complexes 1 and 2 against the A2780 cell line, experiments were performed to evaluate their cell internalization capacity. These studies are crucial to determine whether the complexes can efficiently penetrate the cell membrane and to correlate their antiproliferative effects with their uptake levels.[59] A2780 cells were exposed to complexes 1 and 2 (1 μM) over a period of 4 h, and the cellular uptake of ruthenium was quantified using graphite furnace atomic absorption spectrometry.
A2780 cancer cells (2 × 10^6 cells/plate) were seeded in Petri dishes. After 24 h, complexes 1 and 2 (1 μM) were added to the cells for 4 h. Subsequently, the RPMI medium was removed, and the cells were washed with phosphate-buffered saline (PBS), trypsinized, and counted. The ruthenium absorbance measurements were conducted with an Analytik Jena ContrAA 700 graphite furnace atomic absorption spectrometer (Jena, Germany), equipped with solid sampling tubes. The absorbance measurements were performed at 349.8945 nm, with the peak volume selected absorbance (PVSA) corresponding to three pixels. The heating program for the graphite furnace, used for the quantitative determination of ruthenium, is depicted in Table S4.[66] The analytical working solution of 50 mg L^–1 Ru was prepared by diluting standard solutions of 1000 mg L^–1 Ru (Specsol, São Paulo, Brazil) and acidifying with 0.5% (v/v) HNO3. To establish the calibration curve, appropriate aliquots of the analytical working solution were added to the atomizer to achieve concentrations of 0.1, 0.3, 0.6, 0.9, 1.2, and 1.5 ng of ruthenium. The cell suspension containing the internalized complexes was diluted with 500 μL of deionized water, acidified with 0.5% (v/v) HNO3, and homogenized using a vortex mixer (IKA model V1). For the determination of Ru by SS HR-CS GFAAS, 10 μL aliquots of the samples were transferred to the platform and introduced automatically into the graphite furnace, in which all measurements were carried out in triplicate.

[10] = system: A2780 tumor spheroids; assay: 3D tumor spheroids; assay type: cell-based, human
Protocol: In this experiment, the spheroids were monitored for 144 h after treatment with 1 at several concentrations (0.78–12.5 μM). […] As observed, at this concentration there is a decrease in the diameter, followed by stabilization, after treatment for 48 h. […] These findings underscore the necessity to refine in vitro methodologies to better elucidate the potential of novel compounds. Such improvements are crucial for increasing the likelihood of identifying critical insights early in the drug discovery and development process, thereby minimizing errors in subsequent stages. After treatment for 144 h, double staining with both DAPI and PI was performed.
In a 96-well Bioprint Kit [Magnetic 3D Cell Culture Technology (m3D)], the 3D culture experiment was carried out. Initially, to the A2780 cells was added 150 μL of a solution containing nanoparticles (NanoShuttle - PL). The A2780 cells were added to a 96-well repellent culture plate after 24 h. The resulting 1500 cells/well were placed under magnetic drives to form spheroids through the magnetic forces of the magnets. […] The formation of spheroids and their growth were monitored by a Digital Imaging System microscope (CELENA S, Logos Biosystems). Once the spheroids were formed, complex 1 at different concentrations (0.78, 1.56, 3.12, 6.25, and 12.5 μM) was added, and the effect of the compound on the spheroids was monitored for 144 h. […]

[11] = system: A2780 cancer cells; assay: Clonogenic survival assay; assay type: cell-based, human; settings: 0.5 × IC50, 48 h treatment then 7 days
Protocol: The A2780 cancer cells were used for the clonogenic assay, in which a total of 400 cells/well were seeded in a six-well plate in RPMI medium, and after incubation for 24 h, different concentrations of complexes 1 and 2 were added. The plates containing the complexes were incubated (37 °C and 5% of CO2) for 48 h. The culture medium was replaced with fresh medium, and the system was incubated again for 7 days under the same condition. Thereafter, all culture media were removed from the plate, and the cells were washed with PBS and fixed with a 3:1 methanol/acetic acid mixture. Then the cells were colored with a 0.5% crystal violet solution in water for 30 min. Images were taken, and the colonies counted using ImageJ. The experiment was also carried out in triplicate.

[12] = system: A2780 ovarian cancer cells; assay: Morphological assay (bright field, PI, DAPI/Green Plasma); assay type: cell-based, human; settings: for DAPI and Green Plasma staining / propidium iodide fluorescence intensity: 48 h, 0.5 × IC50, IC50, 2 × IC50; for cell morphology: up to 48 h, mainly at higher concentrations
Protocol: For morphological analysis, A2780 cancer cells (0.3 × 10^5 cells/well) were added to a 12-well plate in RPMI medium. After 24 h, different concentrations of complexes 1 and 2 were introduced into the cells. Possible morphological changes were evaluated at 0 and 48 h using an inverted optical microscope (NIKON ECLIPSE TS100) coupled with a Motcam 1SP camera, with a 10× objective lens.
Additionally, 1.5 × 10^4 A2780 cells/well were plated in 96-well plates in RPMI medium for the fluorescence morphology experiments. After treatment for 48 h, 100 μL (1 μg mL^–1) of the fluorescent marker PI ([…]) was added. For the morphological assessment using the fluorescent markers DAPI (4′,6-diamidino-2-phenylindole dilactate) and Green Plasma (CellMask), the cells were fixed in methanol and 80 μL (1 μg mL^–1) portions of the markers were added. Images were taken using a CELENA microscope (Logos Biosystems).

SMILES	IC50 ([1]; Homo sapiens, A549, 48 h) [µM]	IC50 ([3]; Homo sapiens, A2780, 48 h) [µM]	IC50 ([4]; Homo sapiens, A2780cis, 48 h) [µM]	IC50 ([5]; Homo sapiens, MDA-MB-231, 48 h) [µM]	IC50 ([1]; MTT, 48 h treatment) [µM]	IC50 [8] [µM]	IC50 ([3]; MTT, 48 h treatment) [µM]	IC50 ([4]; MTT, 48 h treatment) [µM]	IC50 ([5]; MTT, 48 h treatment) [µM]	also measured
c1ccc(-c2ccccn2)nc1 [Bipy, 2,2′-bipyridine]	> 100	> 100	> 100	> 100	–	–	–	–	–	IC50 at 48 h ([2]; MRC-5 normal lung cells): > 100 µM
c1ccc(P(CCCP(c2ccccc2)c2ccccc2)c2ccccc2)cc1 [Dppp, 1,3-bis(diphenylphosphino)propane]	> 100	> 100	> 100	> 100	–	–	–	–	–	IC50 at 48 h [6]: > 100 µM
O=C(O)c1ccccc1Nc1ccccc1 [HFe, fenamic acid]	> 100	> 100	> 100	> 100	–	–	–	–	–	IC50 at 48 h [2]: > 100 µM
O=C(O)c1ccccc1Nc1cccc(C(F)(F)F)c1 [HMFFe, flufenamic acid]	> 100	> 100	> 100	> 100	–	–	–	–	–	IC50 at 48 h [6]: > 100 µM
Cc1cccc(Nc2ccccc2C(=O)O)c1C [HMFe, mefenamic acid]	> 100	> 100	> 100	> 100	–	–	–	–	–	IC50 at 48 h [2]: > 100 µM
Cc1c(Cl)cccc1Nc1ccccc1C(=O)O [HMTFe, tolfenamic acid]	> 100	> 100	> 100	> 100	–	–	–	–	–	IC50 at 48 h [2]: > 100 µM
[Cl][Ru-4]12([Cl])([n+]3ccccc3-c3cccc[n+]31)[P+](c1ccccc1)(c1ccccc1)CCC[P+]2(c1ccccc1)c1ccccc1 [[RuCl2(bipy)(dppp)], cis-[RuCl2(bipy)(dppp)]]	–	–	–	–	> 50	40.9 ± 1.76	28 ± 0.81	35.6 ± 1.7	26.1 ± 4.84	stability in DMSO [7]: new signals are observed at ∼40 ppm; stability in DMSO/DMEM solution [7]: two other doublets with chemical shifts at ∼33 and ∼46 ppm
F[P-](F)(F)(F)(F)F.c1ccc(Nc2ccccc2C2=[O+][Ru-4]34([O]2)([n+]2ccccc2-c2cccc[n+]23)[P+](c2ccccc2)(c2ccccc2)CCC[P+]4(c2ccccc2)c2ccccc2)cc1 [complex 1, [Ru(Fen)(bipy)(dppp)]PF6]	–	–	–	–	3.96 ± 0.4	2.47 ± 0.18	0.66 ± 0.04	0.96 ± 0.04	2.87 ± 0.11	Ru uptake percentage [9]: 3,6%; amount of ruthenium internalized by A2780 cells [9]: 20,8 ± 3,2 ng; concentration at which spheroid growth (diameter) was significantly compromised ([10]; 0.78–12.5 μM tested, monitored 144 h): 12.5 µM; PI fluorescence in spheroids ([10]; DAPI/PI double staining after 144 h): increase in the fluorescence intensity of the PI marker; effect on colony formation [11]: significantly reduced both the number and size of colonies; DAPI and Green Plasma staining [12]: significant shortening of the plasma membrane, while the nucleus remained intact; propidium iodide fluorescence intensity [12]: significant increase in fluorescence intensity; cell morphology [12]: loss of adhesion and round cells are observed
Cc1cccc(Nc2ccccc2C2=[O+][Ru-4]34([O]2)([n+]2ccccc2-c2cccc[n+]23)[P+](c2ccccc2)(c2ccccc2)CCC[P+]4(c2ccccc2)c2ccccc2)c1C.F[P-](F)(F)(F)(F)F [complex 2, [Ru(MFen)(bipy)(dppp)]PF6]	–	–	–	–	4.57 ± 0.08	2.33 ± 0.04	0.91 ± 0.06	1.11 ± 0.06	3.99 ± 0.21	Ru uptake percentage [9]: 4,5%; amount of ruthenium internalized by A2780 cells [9]: 26,0 ± 1,9 ng; effect on colony formation [11]: significantly reduced both the number and size of colonies; DAPI and Green Plasma staining [12]: significant shortening of the plasma membrane, while the nucleus remained intact; propidium iodide fluorescence intensity [12]: significant increase in fluorescence intensity; cell morphology [12]: loss of adhesion and round cells are observed
Cc1c(Cl)cccc1Nc1ccccc1C1=[O+][Ru-4]23([O]1)([n+]1ccccc1-c1cccc[n+]12)[P+](c1ccccc1)(c1ccccc1)CCC[P+]3(c1ccccc1)c1ccccc1.F[P-](F)(F)(F)(F)F [complex 3, [Ru(TFen)(bipy)(dppp)]PF6]	–	–	–	–	8.74 ± 0.23	3.58 ± 0.02	2.25 ± 0.08	2.68 ± 0.26	3.71 ± 0.15	–
FC(F)(F)c1cccc(Nc2ccccc2C2=[O+][Ru-4]34([O]2)([n+]2ccccc2-c2cccc[n+]23)[P+](c2ccccc2)(c2ccccc2)CCC[P+]4(c2ccccc2)c2ccccc2)c1.F[P-](F)(F)(F)(F)F [complex 4, [Ru(FFen)(bipy)(dppp)]PF6]	–	–	–	–	6.87 ± 0.35	4.36 ± 0.19	2.14 ± 0.11	4.25 ± 0.11	2.34 ± 0.14	–
